Experimental data from patent US12202805B2, “Process for preparing (5S)-{[2-(4-carboxyphenyl)ethyl] |2-(2-{|3-chloro-4'-(trifluoromethyl)biphenyl-4-yl]methoxy}phenyl)ethyl]aminol-5,6,7,8-tetrahydroquinoline-2-carboxylic acid and its crystalline forms for use as pharmaceutically active compound” (Bayer Aktiengesellschaft, priority 2021, dated 2025).

System: sGC
Assay: E-2.1 inhalative administration in healthy male subjects for 7 days: cGMP in blood samples
Type: in vivo, human
Protocol: E-2.1 Inhalative Administration of sGC Activators in Healthy Male Subjects for 7 Days—cGMP and Bronchodilatation
Healthy White male subjects, aged 18 to 45 years and with a body mass index (BMI) above/equal 18.5 and below/equal 29.9 kg/m2 were treated in a clinical pharmacological phase I study on seven days with inhaled once daily doses of 480 μg or 1000 μg or 2000 μg (2 capsules of 1000 μg) (nominal dose) of dry powder formulations comprising example 2 or Placebo. The subjects inhaled the drug powder from capsules (see under C-1, e.g. tables 22 and 23) inserted into a handheld inhalation device by one deep inhalative breath. The dry powder formulation of the drug is dispersed into the airstream and fine particles are transported into the deep parts of the lung where it is intended to cause a vasodilation of the blood vessels in PH patients for a substantial reduction of increased blood pressure in the central pulmonary blood vessels in PAH patients or other subtypes of PH. This effect cannot be shown in subjects with healthy lungs. In addition inhaled drug causes a dilation of the bronchial airways and thus also improves disease states of lung diseases in PH patients with pathological bronchoconstriction. This effect was measured via bodyplethysmography as reduction of Specific Airway Resistance in healthy subjects. After the deep inhalative breath the subjects hold breath for 2 seconds, so that the dry powder drug condenses from the airstream onto the surface of the deeper lung areas where it is deposited close to its site of intended pharmacological action. The drug dissolutes over the day and equilibrates the lung via lining fluid.
Drug activity in healthy men was controlled in the healthy subjects by analysing blood samples for cGMP, the immediate product of sGC pharmacological activation prior after the first and after the last drug inhalation of the 7 days treatment in comparison to measurements on the pretreatment day for all doses.

## O=C(O)c1ccc(CCN(CCc2ccccc2OCc2ccc(-c3ccc(C(F)(F)F)cc3)cc2Cl)[C@H]2CCCc3nc(C(=O)O)ccc32)cc1 [example 2, (5S)—{[2-(4-Carboxyphenyl)ethyl][2-(2-{[3-chloro-4′-(trifluoromethyl)biphenyl-4-yl]methoxy}phenyl)-ethyl]amino}-5,6,7,8-tetrahydroquinoline-2-carboxylic acid as Monohydrate II]
480 μg, 8 D 00 H 00 M
  cGMP over time (mean): 7.20 ± 3.23 nmol/L
480 μg, 8 D 12 H 00 M
  cGMP over time (mean): 6.20 ± 2.00 nmol/L
480 μg, −0 D 09 H 00 M
  cGMP over time (mean): 5.60 ± 1.08 nmol/L
480 μg, −1 D 02 H 00 M
  cGMP over time (mean): 5.40 ± 1.41 nmol/L
1000 μg, 5 D 00 H 00 M
  cGMP over time (mean): 8.50 ± 2.13 nmol/L
1000 μg, −0 D 22 H 00 M
  cGMP over time (mean): 5.10 ± 1.46 nmol/L
2000 μg, 2 D 00 H 00 M
  cGMP over time (mean): 6.40 ± 2.09 nmol/L
2000 μg, 3 D 00 H 00 M
  cGMP over time (mean): 10.00 ± 3.51 nmol/L
2000 μg, 8 D 00 H 00 M
  cGMP over time (mean): 16.00 ± 5.77 nmol/L
2000 μg, 9 D 12 H 00 M
  cGMP over time (mean): 9.40 ± 3.10 nmol/L
First profile day, 1000 μg inhaled
  peak mean±SD cGMP value: 11.69 ± 1.86 nmol/L
